This is an account of results in US6316033A, “Compositions for treatment of antibiotic-resistant gram-positive bacterial infections and methods for using and preparing the same” (Marco Polo Technologies, priority 1999, dated 2001).

SMILES strings stand for the structures. In brackets after ≈: the same amount, converted by molar mass. Read-outs that look alike come from different tables or passages of the source.

By zone of inhibition is commonly meant the extent of the growth-free halo in a diffusion test.

Experiment [1] has as its system wild-type Staphylococcus aureus (ATCC 29212). The experiment in a line: Disk sensitivity assay, wild-type S. aureus. The following applies: for zone of inhibition at 2000 µg/mL: Staphylococcus aureus, ATCC29212, 18 h. In kind it is cell-based. The protocol: The antimicrobial activities of the total organic solvent extract from A. euchroma, obtained as described in Example 1 above, and the red colored active fraction from A. euchroma, obtained as described in Example 2 above, were evaluated using a disk sensitivity assay.
(§1) More specifically, wild-type Staphylococcus aureus (ATCC 29212) was grown in Luria broth (L-broth) at 37° C. to exponential phase, diluted to 1.0×10^7 bacteria/ml, and mixed with minimal medium (M63, +salt and glucose) with 0.15% (w/v) soft agar. The mixture was poured over a minimal agar plate (minimal medium +0.7% (w/v) agar). Filter paper disks (6.0 mm in diameter) were then impregnated with 20 μl of total organic solvent extract from A. euchroma (containing 10 mg/ml of naphthaquinone compounds in dimethyl formamide (DMF)); 20 μl of total organic solvent extract from L. erythrorhizon (containing 10 mg/ml of naphthaquinone compounds in DMF); 20 μl of the red colored active fraction from A. euchroma isolated using TLC (10 mg/ml in DMF); 20 μl of the red colored active fraction from A. euchroma isolated using the silica gel column (10 mg/ml in DMF); or 20 μl of DMF as control, and placed on the surface of the agar plates. The plates were then incubated at 37° C. for 18 hrs.
(§2) The disk assay described above was carried out on wild-type S. aureus and antibiotic-resistant S. aureus using 20 μl of the red colored active fraction from A. euchroma isolated using TLC (10 mg/ml in DMF); 20 μl of the red colored active fraction from A. euchroma isolated using the silica gel column (10 mg/ml in DMF); or 20 μl of DMF as a control.
(§3) The anti-microbial activities of the 6 individual components were determined using the disk sensitivity assay described above.
(§4) More specifically, filter paper disks impregnated with 20 μl of each individual component (2.0 mg/ml) were placed on top of the agar plate. The plates were developed as described in Example 4 above.

Experiment [2] concerns wild-type Staphylococcus aureus. The experiment is described as follows: Minimum inhibitory concentration in liquid culture, wild-type strain. The experiment is classed as cell-based. The method, then:
(§5) Next, the MIC for the total organic solvent extract from A. euchroma, obtained as described in Example 1 above, against wild-type Staphylococcus aureus and antibiotic-resistant Staphylococcus aureus were determined in liquid culture using L-broth with different amounts of total organic solvent extract, and compared to the MIC for common antibiotics.
(§6) More specifically, different concentrations of total organic solvent extract was added to 1.0 ml of L-broth, and inoculated with 50 μl of an overnight growth of bacteria (about 1.0×10^8 cells). The resulting samples were incubated overnight at 37° C. The MIC was then determined by measuring the minimal concentration of extract needed to inhibit the growth of the bacteria.
The MIC of the six individual components were determined using wild-type S. aureus and the liquid culture method as described above.

Experiment [3] concerns antibiotic-resistant Staphylococcus aureus (ATCC 27695). The experiment is described as follows: Disk sensitivity assay, antibiotic-resistant S. aureus. The experiment is classed as cell-based. The following applies: for zone of inhibition at 2000 µg/mL: Staphylococcus aureus, ATCC27695, 18 h. The protocol:
as §1
The disk assay described above was carried out using antibiotic-resistant Staphylococcus aureus (ATCC 27695), and 20 μl of the total organic solvent extract from A. euchroma (containing 10 mg/ml of naphthaquinone compounds in DMF); 20 μl of the total organic solvent extract from L. erythrorhizon (containing 10 mg/ml of naphthaquinone compounds in DMF); or 20 μl of DMF as a control.
as §2, §3, §4

Experiment [4] concerns antibiotic-resistant Staphylococcus aureus clinical isolates. The experiment in a line: Antibiotic resistance (MIC) of S. aureus clinical isolates. The experiment is classed as cell-based.
Experiment [5] relates to antibiotic-resistant Staphylococcus aureus. The experiment in a line: Minimum inhibitory concentration in liquid culture, antibiotic-resistant strain. The experiment is classed as cell-based. The following applies: read-out: Minimum Inhibitory Concentration (MIC). The protocol: as §5, §6
For experiment [6] the following is noted: literature (Tanaka et al; Kyogoku et al; Honda et al); cited from earlier work.
The conditions of experiment [7]: literature (Tanaka et al, 1986); cited from earlier work.
Where [8] appears, read: Wild-Type Strain, individual components, 20 μl of 2.0 mg/ml, Table 9.
[9] abbreviates: wild-type S. aureus, liquid culture, Table 10.
Where [10] appears, read: Antibiotic-resistant Strain, individual components, 20 μl of 2.0 mg/ml, Table 9.
The mark [11] stands for this setting: Strain 3-16, read-out: Antibiotic Resistance (MIC).
Where [12] appears, read: Strain 3-20, read-out: Antibiotic Resistance (MIC).
The mark [13] stands for this setting: Strain 5-37, read-out: Antibiotic Resistance (MIC).
[14] abbreviates: Strain 5-38, read-out: Antibiotic Resistance (MIC).
Where [15] appears, read: Strain 5-39, read-out: Antibiotic Resistance (MIC).
Setting [16] is: Strain 5-47, read-out: Antibiotic Resistance (MIC).
[17] abbreviates: read-out: Antibiotic Resistance (MIC), Strain 3-44.
Where [18] appears, read: Staphylococcus aureus, read-out: Minimum Inhibitory Concentration (MIC).
[19] abbreviates: Wild-Type Strain, individual components, 20 μl of 2.0 mg/ml, Table 9, read-out: Zone of inhibition.
Setting [20] is: Staphylococcus aureus, wild-type S. aureus, liquid culture, Table 10, read-out: MIC.
[21] abbreviates: Antibiotic-resistant Strain, individual components, 20 μl of 2.0 mg/ml, Table 9, read-out: Zone of inhibition.

As for `CC(C)=CC[C@@H](OC(=O)CC(C)=C(C)C)C1=CC(=O)c2c(O)ccc(O)c2C1=O` (single isomer, unassigned; peak iii) [Peak III, Teracryl shikonin], the Zone of inhibition was determined as 7.5 mm in experiment [1] (setting [8]) and 7.0 mm in experiment [3] (setting [10]). In addition, the MIC in experiment [2] (setting [9]) lay within 4.0 to 6.0 µg/mL.

Consider `COc1cccc(OC)c1C(=O)N[C@@H]1C(=O)N2[C@@H]1SC(C)(C)[C@@H]2C(=O)O` [Methicillin], for which the MIC in experiment [4] (setting [11]) was 32 µg/mL (≈ 84.1 µM); in experiment [4] (setting [12]), 128 µg/mL (≈ 336 µM); in experiment [4] (setting [13]), greater than 128 µg/mL; in experiment [4] (setting [14]), 32 µg/mL (≈ 84.1 µM); in experiment [4] (setting [15]), 128 µg/mL (≈ 336 µM); in experiment [4] (setting [16]), greater than 128 µg/mL.

Take `CC(C)=CC[C@@H](OC(=O)CC(C)(C)O)C1=CC(=O)c2c(O)ccc(O)c2C1=O` (single isomer, unassigned; peak iv) [Peak IV, Hydroxyisovaleryl shikonin]: the Zone of inhibition in experiment [1] (setting [8]) and in experiment [3] (setting [10]) was 7.0 mm throughout. In addition, the MIC in experiment [2] (setting [9]) was in the range of 4.0 to 6.0 µg/mL.

Regarding `CC[C@H]1OC(=O)[C@H](C)[C@@H](O[C@H]2C[C@@](C)(OC)[C@@H](O)[C@H](C)O2)[C@H](C)[C@@H](O[C@@H]2O[C@H](C)C[C@H](N(C)C)[C@H]2O)[C@](C)(O)C[C@@H](C)C(=O)[C@H](C)[C@@H](O)[C@]1(C)O` [Erythromycin], the MIC was greater than 32 µg/mL in experiment [4] (setting [17]); greater than 32 µg/mL in experiment [4] (read-out: Antibiotic Resistance (MIC), Strain 5-75); greater than 32 µg/mL in experiment [4] (read-out: Antibiotic Resistance (MIC), Strain 5-76); greater than 32 µg/mL in experiment [4] (read-out: Antibiotic Resistance (MIC), Strain 5-77); 4 µg/mL (≈ 5.45 µM) in experiment [4] (read-out: Antibiotic Resistance (MIC), Strain 5-78); greater than 20 µg/mL in experiment [5]. Further, the MIC in experiment [2] (setting [18]) was less than 1 µg/mL.

Consider `CN(C)C1C(=O)C(C(N)=O)=C(O)C2(O)C(=O)C3=C(O)c4c(O)cccc4C(C)(O)C3CC12` (stereo not shown) [Tetracycline], for which the MIC in experiment [4] (setting [17]) is greater than 32 µg/mL; in experiment [4] (read-out: Antibiotic Resistance (MIC), Strain 1206), greater than 32 µg/mL; in experiment [5] it was greater than 20 µg/mL; in experiment [2] (setting [18]), 1 to 2 µg/mL (≈ 2.25 to 4.5 µM).

`CC(C)=CCCC1=CC(=O)c2c(O)ccc(O)c2C1=O` [deoxyshikonin]: in experiment [6], the antimicrobial activity result was “antimicrobial activity”. Also, in experiment [7], the anti-inflammatory activity entry is “anti-inflammatory activity”.

As to `CC(C)=CC[C@@H](O)C1=CC(=O)c2c(O)ccc(O)c2C1=O` (single isomer, unassigned) [Peak I, Shikonin], the antimicrobial activity result in experiment [6] is “antimicrobial activity”. The zone of inhibition at 2000 µg/mL in experiment [1] and in experiment [3] was 18 mm throughout. Besides, the “appearance of zone of inhibition” value in experiment [1] (wild-type S. aureus, individual components, 2.0 mg/ml) is given as “the inhibition was not complete, as shown by an opaque, rather than a clear zone”; in experiment [3] (antibiotic-resistant S. aureus, individual components, 2.0 mg/ml), “the inhibition was not complete, as shown by an opaque, rather than a clear zone”. The anti-inflammatory activity result in experiment [7] is reported as “anti-inflammatory activity”. For the same molecule, the MIC in experiment [2] (Staphylococcus aureus) fell in the range of 4 to 5 µg/mL (≈ 13.9 to 17.3 µM).

For the molecule `CC(C)=CCC(OC(=O)C=C(C)C)C1=CC(=O)c2c(O)ccc(O)c2C1=O` (stereo not drawn) [Peak VI, β, β-dimethylacryl shikonin], the zone of inhibition at 2000 µg/mL in experiment [1] (setting [19]) and in experiment [3] (setting [21]) was 7 mm in each case. In addition, the MIC in experiment [2] (setting [20]) was less than 2 µg/mL. Also, in experiment [2] (setting [9]), the “activity ranking among the individual components (MIC)” value was “the most active”.

As for `CC(=O)O[C@H](CC=C(C)C)C1=CC(=O)c2c(O)ccc(O)c2C1=O` (single isomer, unassigned) [Peak II, Acetyl shikonin], the zone of inhibition at 2000 µg/mL in experiment [1] is 10 mm; in experiment [3], 17 mm. Further, the MIC in experiment [2] (Staphylococcus aureus) was in the range of 0.5 to 1 µg/mL (≈ 1.51 to 3.03 µM). In experiment [2] (setting [9]), the “activity ranking among the individual components (MIC)” value is reported as “the most active”.

With `CC(C)=CC[C@@H](OC(=O)C(C)C)C1=CC(=O)c2c(O)ccc(O)c2C1=O` [Peak V, Isobutyl shikonin], the zone of inhibition at 2000 µg/mL in experiment [1] (setting [19]) and in experiment [3] (setting [21]) was 7 mm each time. Further, the MIC in experiment [2] (setting [20]) was 2 to 4 µg/mL (≈ 5.58 to 11.2 µM).

In the case of `CC1(C)S[C@@H]2[C@H](NC(=O)Cc3ccccc3)C(=O)N2[C@H]1C(=O)O` [Penicillin G], the MIC in experiment [4] (read-out: Antibiotic Resistance (MIC), Strain 6515) was greater than 20 µg/mL.

For `CCN1CCN(C(=O)N[C@@H](C(=O)N[C@@H]2C(=O)N3[C@@H]2SC(C)(C)[C@@H]3C(=O)O)c2ccccc2)C(=O)C1=O` [Piperacillin], the MIC was 32 µg/mL (≈ 61.8 µM) in experiment [4] (setting [11]); 128 µg/mL (≈ 247 µM) in experiment [4] (setting [12]); 32 µg/mL (≈ 61.8 µM) in experiment [4] (Strain 4-15, read-out: Antibiotic Resistance (MIC)); greater than 128 µg/mL in experiment [4] (Strain 4-44, read-out: Antibiotic Resistance (MIC)); 32 µg/mL (≈ 61.8 µM) in experiment [4] (Strain 4-50, read-out: Antibiotic Resistance (MIC)); greater than 128 µg/mL in experiment [4] (setting [13]). In addition, the MIC in experiment [4] (setting [14]) is 32 µg/mL (≈ 61.8 µM); in experiment [4] (setting [15]) it was 128 µg/mL (≈ 247 µM); in experiment [4] (setting [16]) it was greater than 128 µg/mL.

Take `CO[C@@H]1[C@@H](OC(N)=O)[C@@H](O)[C@H](Oc2ccc3c(O)c(NC(=O)c4ccc(O)c(CC=C(C)C)c4)c(=O)oc3c2C)OC1(C)C` [Novobiocin]: the MIC was greater than 20 µg/mL in experiment [5] and less than 2 µg/mL in experiment [2] (setting [18]).
